Assay: xn = mol fraction of the nth substance listed

N[C@@H](Cc1c[nH]cn1)C(=O)O + CCCCCCCCCCCC[N+](C)(C)C.[Br-] + O
viscosity [mPa·s], 101 kPa
Details	293.15 K	298.15 K	303.15 K	308.15 K	313.15 K
x1 = 0.0001801, x2 = 0.0001083	1.03	0.904	0.816	0.738	0.668
x1 = 0.0001801, x2 = 0.0001624	1.033	0.908	0.816	0.741	0.669
x1 = 0.0001801, x2 = 0.0002165	1.035	0.909	0.821	0.745	0.67
x1 = 0.0001801, x2 = 0.0002706	1.038	0.918	0.823	0.748	0.672
x1 = 0.0001801, x2 = 0.0003247	1.043	0.925	0.827	0.751	0.674
x1 = 0.0001801, x2 = 0.0003788	1.048	0.927	0.839	0.753	0.676
x1 = 0.0001801, x2 = 0.0004329	1.056	0.931	0.843	0.756	0.68
x1 = 0.0001801, x2 = 0.000487	1.06	0.935	0.849	0.758	0.685
x1 = 0.0001801, x2 = 0.000541	1.062	0.935	0.851	0.76	0.689
x1 = 0.0001802, x2 = 5.413e-05	1.027	0.901	0.815	0.736	0.667
x1 = 0.0008997, x2 = 0.000544	1.041	0.906	0.823	0.737	0.651
x1 = 0.0008998, x2 = 0.0003809	1.032	0.891	0.808	0.728	0.646
x1 = 0.0008998, x2 = 0.0004352	1.035	0.894	0.812	0.732	0.647
x1 = 0.0008998, x2 = 0.0004896	1.038	0.9	0.818	0.734	0.649
x1 = 0.0008999, x2 = 0.0002721	1.029	0.885	0.803	0.724	0.644
x1 = 0.0008999, x2 = 0.0003265	1.03	0.888	0.806	0.727	0.645
x1 = 0.0009, x2 = 0.0001633	1.025	0.879	0.8	0.722	0.641
x1 = 0.0009, x2 = 0.0002177	1.027	0.881	0.802	0.722	0.643
x1 = 0.0009001, x2 = 5.443e-05	1.02	0.874	0.796	0.721	0.64
x1 = 0.0009001, x2 = 0.0001089	1.022	0.876	0.799	0.721	0.64
x1 = 0.001798, x2 = 0.0001644	1.065	0.915	0.85	0.756	0.685
x1 = 0.001798, x2 = 0.0002191	1.067	0.916	0.854	0.759	0.688
x1 = 0.001798, x2 = 0.0002739	1.068	0.919	0.858	0.76	0.691
x1 = 0.001798, x2 = 0.0003287	1.07	0.92	0.862	0.764	0.693
x1 = 0.001798, x2 = 0.0003835	1.072	0.923	0.867	0.771	0.696
x1 = 0.001798, x2 = 0.0004382	1.079	0.927	0.87	0.776	0.701
x1 = 0.001798, x2 = 0.000493	1.083	0.931	0.876	0.781	0.706
x1 = 0.001798, x2 = 0.0005477	1.089	0.939	0.881	0.786	0.709
x1 = 0.001799, x2 = 5.48e-05	1.061	0.908	0.842	0.751	0.68
x1 = 0.001799, x2 = 0.0001096	1.064	0.912	0.846	0.755	0.683

CCO + CC(=O)[O-].CC[n+]1ccn(C)c1
101 kPa, x1 = 1
Details	viscosity [mPa·s]
318.15 K	0.755
338.15 K	0.543

CCO + CC[N+]1(C)CCCC1.COP(=O)([O-])OC
100 kPa, x2 = 0
Details	viscosity [mPa·s]
308.15 K	0.9
318.15 K	0.75
328.15 K	0.63
333.15 K	0.58

CC[S+](CC)CC.O=S(=O)([N-]S(=O)(=O)C(F)(F)F)C(F)(F)F + CCCO
Details	viscosity [mPa·s]
313.15 K, 100 kPa, x1 = 0.6987	10.75

CCO + CC[n+]1ccn(CCOC)c1.N#C[S-]
Details	viscosity [mPa·s]
308.15 K, 100 kPa, x2 = 0	0.902

CC(C)C[P+](C)(CC(C)C)CC(C)C.Cc1ccc(S(=O)(=O)[O-])cc1 + O
Details	viscosity [mPa·s]
293.15 K, 101 kPa, x2 = 0.7599	68
293.15 K, 101 kPa, x2 = 0.8779	23
293.15 K, 101 kPa, x2 = 0.9283	11.6
293.15 K, 101 kPa, x2 = 0.9729	4
298.15 K, 100 kPa, x1 = 0.003319	1.115
298.15 K, 100 kPa, x1 = 0.00854	1.475
308.15 K, 100 kPa, x1 = 0.009239	1.175
333.15 K, 100 kPa, x1 = 0.9022	221
353.15 K, 100 kPa, x1 = 0.9022	79

N[C@@H](Cc1c[nH]cn1)C(=O)O + CCCC[n+]1ccn(C)c1.F[B-](F)(F)F + O
viscosity [mPa·s], 100 kPa
Details	293.15 K	298.15 K	303.15 K	308.15 K	313.15 K	318.15 K
x1 = 0.0002714, x2 = 0.0003602	1.038	0.925	0.843	0.759	0.701	0.646
x1 = 0.0002725, x2 = 0.0007201	1.07	0.959	0.876	0.797	0.744	0.689
x1 = 0.0002736, x2 = 0.00108	1.101	0.991	0.912	0.838	0.787	0.733
x1 = 0.0004522, x2 = 0.0003601	1.041	0.927	0.845	0.761	0.703	0.648
x1 = 0.000454, x2 = 0.00072	1.073	0.962	0.879	0.8	0.747	0.692
x1 = 0.0004559, x2 = 0.00108	1.104	0.994	0.915	0.841	0.79	0.736
x1 = 0.0006329, x2 = 0.00036	1.044	0.93	0.848	0.764	0.706	0.651
x1 = 0.0006355, x2 = 0.0007198	1.076	0.965	0.882	0.803	0.75	0.695
x1 = 0.0006382, x2 = 0.001079	1.107	0.997	0.918	0.844	0.793	0.739
x1 = 0.0008136, x2 = 0.00036	1.047	0.933	0.851	0.767	0.709	0.654
x1 = 0.000817, x2 = 0.0007197	1.079	0.968	0.885	0.806	0.753	0.698
x1 = 0.0008203, x2 = 0.001079	1.11	1	0.921	0.847	0.796	0.742
x1 = 0.0009942, x2 = 0.0003599	1.05	0.936	0.854	0.77	0.712	0.657
x1 = 0.0009983, x2 = 0.0007196	1.082	0.971	0.888	0.809	0.755	0.7
x1 = 0.001002, x2 = 0.001079	1.113	1.003	0.924	0.849	0.799	0.745
x1 = 0.001175, x2 = 0.0003598	1.053	0.939	0.856	0.772	0.714	0.659
x1 = 0.00118, x2 = 0.0007194	1.085	0.974	0.89	0.811	0.758	0.703
x1 = 0.001185, x2 = 0.001079	1.116	1.006	0.927	0.852	0.802	0.748
x1 = 0.001355, x2 = 0.0003598	1.056	0.942	0.859	0.775	0.716	0.661
x1 = 0.001361, x2 = 0.0007193	1.088	0.976	0.893	0.814	0.76	0.705
x1 = 0.001366, x2 = 0.001079	1.119	1.008	0.929	0.855	0.804	0.75
x1 = 0.001536, x2 = 0.0003597	1.059	0.944	0.862	0.777	0.719	0.663
x1 = 0.001542, x2 = 0.0007192	1.091	0.979	0.896	0.816	0.763	0.707
x1 = 0.001548, x2 = 0.001078	1.122	1.011	0.932	0.857	0.806	0.752
x1 = 0.001716, x2 = 0.0003596	1.062	0.947	0.864	0.779	0.721	0.666
x1 = 0.001723, x2 = 0.000719	1.094	0.982	0.898	0.818	0.765	0.71
x1 = 0.00173, x2 = 0.001078	1.125	1.014	0.934	0.86	0.808	0.753

CCCC[N+](CCCC)(CCCC)CCCC.O=[N+]([O-])[O-] + CCCCCCCCCCCCOS(=O)(=O)[O-].[Na+] + O
viscosity [mPa·s], 100 kPa
Details	x2 = 1.81e-06, x1 = 0.0001802	x2 = 3.61e-06, x1 = 0.0001802	x2 = 5.42e-06, x1 = 0.0001802	x2 = 7.23e-06, x1 = 0.0001802	x2 = 9.04e-06, x1 = 0.0001802	x2 = 1.084e-05, x1 = 0.0001802	x2 = 1.265e-05, x1 = 0.0001802	x2 = 1.446e-05, x1 = 0.0001802	x2 = 1.626e-05, x1 = 0.0001802	x2 = 1.807e-05, x1 = 0.0001802
293.15 K	1.012	1.013	1.014	1.014	1.015	1.016	1.017	1.018	1.018	1.018
298.15 K	0.898	0.9	0.901	0.902	0.902	0.903	0.903	0.903	0.904	0.904
303.15 K	0.797	0.798	0.798	0.8	0.8	0.801	0.801	0.801	0.801	0.801
308.15 K	0.709	0.71	0.712	0.713	0.713	0.713	0.713	0.714	0.714	0.714
313.15 K	0.643	0.644	0.644	0.644	0.645	0.645	0.645	0.645	0.645	0.646
318.15 K	0.597	0.597	0.597	0.598	0.598	0.598	0.598	0.598	0.599	0.599
